One may read the LD50 as the dose expected to kill half of the subjects tested. One may read the ED50 as the midpoint of the dose-response relation.

Consider 18 compounds from patent publication US4371544A, “Pharmaceutical composition containing 1,1,3,5-substituted biuret compound” (Taiho Pharmaceutical Company Limited, priority 1979, dated 1983).

SMILES strings stand for the structures. Where two headings read alike, the source gives them in different places.

The nature of data set [1]: Acute toxicity (oral, mice, 7 days observation). The format is in vivo. Particulars: mouse, in vivo. The method, boiled down: (§1)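 Overnight-fasted male ddy mice (20-25 g) received compound orally as a suspension in 0.25% carboxymethylcellulose, observed 7 days. Lethal dose (mg/kg) taken from deaths per mice tested; LD50 given where marked.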
Data set [2] relates to ddy strain of male mice. Put plainly: Analgesic activity, Haffner method (morphine threshold dose, clamp). The format is in vivo, mouse (ddy). Particulars: Mus musculus; for ED50: oral, Δ mark, range in parentheses; for inhibition in vivo at 100 mg/kg: 100 mg/kg oral, 45 minutes before morphine hydrochloride. An outline of the steps:
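Fasted male ddy mice weighing 20-25 g were given the test compound orally as a suspension in 0.25% carboxymethylcellulose. After 45 minutes, a threshold dose (1.5-2.5 mg/kg body weight) of morphine hydrochloride was injected subcutaneously, and clamp-induced pain reactions were watched for 1 hour. Analgesic activity was expressed as inhibitory ratio (%) or as ED50.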

In data set [3] the test system is ddy strain of male mice. In words: Analgesic activity, acetic acid-induced stretching method. The class given is in vivo, mouse (ddy). Particulars: Mus musculus; for ED50: oral, Δ mark, range in parentheses. An outline of the steps: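 Fasted male mice (20-25 g) received test compound orally, usually 100 mg/kg, as a 0.25% carboxymethylcellulose suspension, then 0.2 ml 0.7% acetic acid i.p. 1 hour later. Stretching was scored and activity given as % inhibition; some values are ED50 (mg/kg).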

Data set [4] deals with Wistar strain of male rats. Put plainly: Anti-pyretic activity (dry-yeast-induced fever). The class given is in vivo, rat (Wistar). Particulars: oral (dose not given), up to 4 hours after administration. The method, boiled down: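 Male Wistar rats (150–180 g), fasted overnight, given 10% dry-yeast suspension subcutaneously (1 ml/100 g). Compound dosed orally as 0.25% CMC suspension 5 h later; body temperature followed, febrile index integrated to 4 h post-dose and expressed as % inhibition.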

Data set [5] relates to Wistar strain of male rats. Put plainly: Anti-inflammatory activity (acute carrageenin-induced inflammatory test, hindpaw). The format is in vivo, rat (Wistar). Particulars: Rattus norvegicus, read-out: Anti-inflammatory activity, inflammation inhibitory ratio. How it is done: Next, several tests for determining the pharmacological properties, in that acute toxicity, anti-pyretic activity, analgesic activity and anti-inflammatory activity of the present 1,1,3,5-substituted biuret compounds of the formula (1) were conducted and the test results are shown in Table (2). In the tests, each compounds to be tested was used as a suspension in 0.25% carboxymethylcellulose solution. Methods for testing are explained as follows:
According to the method of acute carrageenin-induced inflammatory test [Folia Pharmacologia Japonica, Vol. 56, pp. 575 (1960)], the Wistar strain of male rats (body weight, 150-180 g) were used as test animals. The rats were fasted overnight, 100 mg/kg body weight of the test compound was administered orally, then 1 hour after the administration, 0.1 ml of 1% carrageenin solution, as the inflammation inducing agent, was injected subcutaneously to the hindpaw of the rat and the volume of the hindpaw was measured at time sequences, Anti-inflammatory activity of the test compound was calculated as inflammation inhibitory ratio (%) at 3 hours after the injection of inflammation inducing agent.

The test system of data set [6] is ddy strain of male mice. Put plainly: Acute toxicity (oral, mice, 7 days observation). The class given is in vivo. The method, boiled down: as §1
Setting [7] is: oral, male ddy mice, 7 days observation, Δ mark, read-out: 50% lethal dose, LD50.
Setting [8] is: 100 mg/kg oral, 3 hours after carrageenin.
Setting [9] is: read-out: Analgesic activity, Haffner method, inhibitory ratio.
Setting [10] is: po, read-out: Analgesic activity, acetic acid-induced stretching method, inhibitory ratio.

Turning to `CNC(=O)NC(=O)N(C)c1ccccc1` [Compound No. 49, 1,5-dimethyl-1-phenylbiuret], the LD50 at 168 h in data set [1] (setting [7]) was 1600 mg/kg. Also, the ED50 in the data set with ddy strain of male mice [2] came out at 86 mg/kg; with ddy strain of male mice [3] it was 34 mg/kg. Besides, in data set [4], the “Anti-pyretic activity, inhibitory ratio (febril index)” value worked out at 84%. The inhibition in vivo at 100 mg/kg in data set [5] (po, 3 h) amounted to 32%.

Turning to `CNC(=O)N(C)C(=O)N(C)c1ccccc1` [Compound No. 53, 1,3,5-Trimethyl-1-phenylbiuret], the LD50 at 168 h in data set [1] (setting [7]) worked out at 1350 mg/kg. The figures for the ED50 in the data set with ddy strain of male mice [2] and with ddy strain of male mice [3] were 135 mg/kg and 68 mg/kg, respectively. For the same compound, in data set [4], the “Anti-pyretic activity, inhibitory ratio (febril index)” value is 108%. In addition, the inhibition in vivo at 100 mg/kg in data set [5] (setting [8]) came out at 76%.

For the compound `CCN(C(=O)N(C)C(=O)NC)c1ccccc1` [Compound No. 58, 1-ethyl-3,5-dimethyl-1-phenylbiuret], in data set [1] (setting [7]), the LD50 at 168 h is 1000 mg/kg. The inhibition in vivo at 100 mg/kg with ddy strain of male mice [2] (setting [9]) amounted to 62.5%; with ddy strain of male mice [3] (setting [10]), 75%; in data set [5] (po, 3 h), 60%. The “Anti-pyretic activity, inhibitory ratio (febril index)” value in data set [4] is given as 137%.

Take `CCN(C(=O)N(C)C(=O)NC)c1ccc(OC)cc1` [Compound No. 61, 1-Ethyl-1-(4-methoxyphenyl)-3,5-dimethylbiuret]: the LD50 at 168 h in data set [1] (setting [7]) amounted to 1250 mg/kg. Moreover, the inhibition in vivo at 100 mg/kg in the data set with ddy strain of male mice [2] (setting [9]) amounted to 25%; in the data set on ddy strain of male mice [3] (setting [10]), 75%; in data set [5] (setting [8]), 52%. In addition, the “Anti-pyretic activity, inhibitory ratio (febril index)” value in data set [4] came out at 35%.

`CNC(=O)N(C(=O)N(C)C)c1ccccc1` [compound 39, 1,1,5-Trimethyl-3-phenylbiuret]: the LD50 at 168 h in data set [1] (setting [7]) was determined as 93 mg/kg. Also, the inhibition in vivo at 50 mg/kg in the data set on ddy strain of male mice [2] (50 mg/kg oral, read-out: Analgesic activity, Haffner method, inhibitory ratio) worked out at 25%; in the data set with ddy strain of male mice [3] (setting [10]), 25%. Besides, in data set [5] (po, 3 h), the inhibition in vivo at 25 mg/kg came out at 33%.

As for `CN(C)C(=O)N(C(=O)NC1CCCCC1)c1ccccc1` [compound 41, 1,1-Dimethyl-3-phenyl-5-cyclohexylbiuret], the median lethal dose (LD50) at 168 h in data set [1] (setting [7]) worked out at 1280 mg/kg. Besides, the inhibition in vivo at 100 mg/kg with ddy strain of male mice [2] (setting [9]) was 62.5%. Moreover, in the data set on ddy strain of male mice [3] (setting [10]), the inhibition in vivo at 200 mg/kg turned out to be 50%.

For `CCN(C)C(=O)NC(=O)NCc1ccccc1` [compound 44, 1-Methyl-1-ethyl-5-benzylbiuret], the LD50 at 168 h in data set [1] (setting [7]) turned out to be 1400 mg/kg. Also, the inhibition in vivo at 200 mg/kg with ddy strain of male mice [3] (200 mg/kg oral, read-out: Analgesic activity, acetic acid-induced stretching method, inhibitory ratio) was 87.5%. Besides, the inhibition in vivo at 100 mg/kg in data set [5] (po, 3 h) was 47%.

For the compound `CCNC(=O)NC(=O)N(C)c1ccccc1` [compound 50, 1-Methyl-1-phenyl-5-ethylbiuret], the LD50 at 168 h in data set [1] (setting [7]) was 1960 mg/kg. The inhibition in vivo at 100 mg/kg was determined as 37.5% with ddy strain of male mice [2] (setting [9]), 50% with ddy strain of male mice [3] (setting [10]) and 38% in data set [5] (setting [8]). In addition, the “Anti-pyretic activity, inhibitory ratio (febril index)” value in data set [4] is 90%.

With `CCCNC(=O)NC(=O)N(C)c1ccccc1` [compound 51, 1-Methyl-1-phenyl-5-n-propylbiuret], the “Acute toxicity: death number of mice/number of mice tested” value is recorded as 1/4 in the data set with ddy strain of male mice [6] (500 mg/kg oral) and 2/4 with ddy strain of male mice [6] (1000 mg/kg oral). Moreover, the inhibition in vivo at 100 mg/kg in the data set on ddy strain of male mice [2] (setting [9]) is 87.5%; with ddy strain of male mice [3] (setting [10]), 37.5%; in data set [5] (po, 3 h), 60%. Besides, in data set [4], the “Anti-pyretic activity, inhibitory ratio (febril index)” value amounted to 164%.

On to `CCCCNC(=O)NC(=O)N(C)c1ccccc1` [compound 52, 1-Methyl-1-phenyl-5-n-butylbiuret], for which the “Acute toxicity: death number of mice/number of mice tested” value with ddy strain of male mice [6] (1000 mg/kg oral) is given as 0/4; in the data set on ddy strain of male mice [6] (2000 mg/kg oral), 3/4. Besides, the inhibition in vivo at 100 mg/kg amounted to 50% in the data set with ddy strain of male mice [2] (setting [9]); 62.5% in the data set on ddy strain of male mice [3] (100 mg/kg oral, 1 hour before acetic acid, read-out: Analgesic activity, acetic acid-induced stretching method, inhibitory ratio); 48% in data set [5] (setting [8]). Also, the “Anti-pyretic activity, inhibitory ratio (febril index)” value in data set [4] turned out to be 104%.

With `CCNC(=O)N(C)C(=O)N(C)c1ccccc1` [compound 54, 1,3-Dimethyl-1-phenyl-5-ethylbiuret], the 50% lethal dose (LD50) at 168 h in data set [1] (setting [7]) is 1350 mg/kg. Besides, the inhibition in vivo at 100 mg/kg was found to be 75% in the data set with ddy strain of male mice [2] (setting [9]), 37.5% with ddy strain of male mice [3] (setting [10]) and 54% in data set [5] (setting [8]). Besides, the “Anti-pyretic activity, inhibitory ratio (febril index)” value in data set [4] is listed as 58%.

On to `CC(C)NC(=O)N(C)C(=O)N(C)c1ccccc1` [compound 56, 1,3-Dimethyl-1-phenyl-5-isopropylbiuret], for which the 50% lethal dose (LD50) at 168 h in data set [1] (setting [7]) is 1320 mg/kg. Further, the inhibition in vivo at 100 mg/kg in the data set on ddy strain of male mice [2] (setting [9]) was 12.5%; in the data set on ddy strain of male mice [3] (setting [10]), 25%; in data set [5] (po, 3 h), 47%. The “Anti-pyretic activity, inhibitory ratio (febril index)” value in data set [4] amounted to 65%.

For the compound `CCN(C(=O)N(C)C(=O)NC)c1ccccc1Cl` [compound 59, 1-Ethyl-1-(2-chlorophenyl)-3,5-dimethylbiuret], in data set [1] (setting [7]), the LD50 at 168 h was 810 mg/kg. Besides, the inhibition in vivo at 100 mg/kg with ddy strain of male mice [2] (setting [9]) worked out at 12.5%; in the data set with ddy strain of male mice [3] (setting [10]), 37.5%; in data set [5] (po, 2 h) it was 51%. In data set [4], the “Anti-pyretic activity, inhibitory ratio (febril index)” value came out at 64%.

On to `CCN(C(=O)N(C)C(=O)NC)c1ccc(Cl)cc1` [compound 60, 1-Ethyl-1-(4-chlorophenyl)-3,5-dimethylbiuret], for which the results for the “Acute toxicity: death number of mice/number of mice tested” value with ddy strain of male mice [6] (1000 mg/kg oral) and in the data set with ddy strain of male mice [6] (2000 mg/kg oral) were 1/4 and 3/4, respectively. Further, the inhibition in vivo at 100 mg/kg in the data set with ddy strain of male mice [2] (setting [9]) was determined as 50%; in the data set with ddy strain of male mice [3] (setting [10]), 75%; in data set [5] (po, 3 h), 33%. Also, the “Anti-pyretic activity, inhibitory ratio (febril index)” value in data set [4] worked out at 88%.

With `CCN(C(=O)N(C)C(=O)NC)c1ccc(C)cc1` [compound 62], the LD50 at 168 h in data set [1] (po) was found to be 1480 mg/kg. In addition, the inhibition in vivo at 100 mg/kg in the data set on ddy strain of male mice [2] (setting [9]) is 37.5%; in the data set with ddy strain of male mice [3] (setting [10]), 62.5%. Besides, the “Anti-pyretic activity, inhibitory ratio (febril index)” value in data set [4] came to 18%.

Regarding `CCCN(C(=O)N(C)C(=O)NC)c1ccccc1` [compound 63, 1-n-Propyl-1-phenyl-3,5-dimethylbiuret], the “Acute toxicity: death number of mice/number of mice tested” value with ddy strain of male mice [6] (1000 mg/kg oral) was 3/4; with ddy strain of male mice [6] (2000 mg/kg oral), 4/4. The inhibition in vivo at 100 mg/kg with ddy strain of male mice [2] (setting [9]) was determined as 50%; with ddy strain of male mice [3] (setting [10]) it was 50%; in data set [5] (setting [8]), 58%. Moreover, in data set [4], the “Anti-pyretic activity, inhibitory ratio (febril index)” value turned out to be 76%.

With `CCCCN(C(=O)N(C)C(=O)NC)c1ccccc1` [compound 64, 1-n-Butyl-1-phenyl-3,5-dimethylbiuret], the “Acute toxicity: death number of mice/number of mice tested” value is 1/4 with ddy strain of male mice [6] (500 mg/kg oral) and 2/4 in the data set with ddy strain of male mice [6] (1000 mg/kg oral). Further, the inhibition in vivo at 100 mg/kg with ddy strain of male mice [2] (setting [9]) stood at 37.5%; in the data set on ddy strain of male mice [3] (setting [10]), 25%; in data set [5] (po, 3 h) it was 43%. The “Anti-pyretic activity, inhibitory ratio (febril index)” value in data set [4] worked out at 50%.

Consider `CN(C(=O)Nc1ccccc1)C(=O)N1CCCCC1` [compound 70, 1,1-Pentamethylene-3-methyl-5-phenylbiuret], for which the LD50 at 168 h in data set [1] (setting [7]) stood at 515 mg/kg. The values for the inhibition in vivo at 100 mg/kg in the data set with ddy strain of male mice [2] (setting [9]) and in the data set with ddy strain of male mice [3] (setting [10]) were 37.5% and 62.5%, respectively.
